Data published in US20140323575A1, “TYROSINE ISOMERS AS THERAPEUTIC AGENTS” (CONSEJO NACIONAL DE INVESTIGACIONES CIENTIFICAS Y TECNICAS …, priority 2011, published 2014).

Assays:
ERK1 and ERK2 = test: Western blot of p-ERK 1/2 in LB tumor cells; format: cell-based, mice; conditions: LB cells cultured 3 minutes with m-tyrosine (250 μg/mL)
Method: (§1) FIG. 8 illustrates the effect of meta-tyrosine on the expression of phosphorylated (p)-Erk 1/2 and p-STAT3 in LB tumor cells using Western blot: 3×10^5 LB tumor cells in 0.1 mL of medium were cultured in the presence of 0.1 mL of meta-tyrosine (m-Tyr; 250 μg/mL), phenylalanine (Phe, 250 μg/mL), meta-tyrosine (250 μg/mL)+phenylalanine (250 μg/mL), or saline for 3 minutes (to measure p-ERK 1/2) or for 8 hours (to measure p-STAT3). Positive control was obtained by treating LB cells with pervanadate. Controls with acting, total ERK 1/2, and total STAT3 were also added. FIG. 8A illustrates a representative experiment showing p-ERK 1/2 expression. FIG. 8B is a histogram showing the mean of 5 experiments; a, P<0.01 versus saline and versus meta-tyrosine+phenylalanine; P<0.02 versus phenylalanine. FIG. 8C illustrates a representative experiment showing p-STAT3 expression. […]
(§2) On this basis, we analyzed, first, the effect of m-tyrosine on ERK1 and ERK2 as 2 examples of protein kinases that are activated by the mitogen activated protein/extracellular signal-regulated kinase (MAP/ERK) signal transduction pathway that normally couples intracellular responses associated with cell proliferation, to the binding of growth factors to cell surface receptors (Kohno M, and Pouyssegur J. 2006. Targeting the ERK signaling pathway in cancer therapy. Ann Med; 38:200-211). […]

STAT3 = test: Western blot of p-STAT3 in LB tumor cells; format: cell-based, mice; conditions: LB cells cultured 8 hours with m-tyrosine (250 μg/mL)
Method: as §1, §2

LB tumor = test: In vivo growth of s.c. LB tumor implants (primary, secondary under CR, established, ascitic); parameters: species or system mice; conditions: for growth of LB tumor implant: inoculated at the site of a primary tumor implant or systemically, daily for 8 days
Method: Twenty mice received an s.c. implant of 1×10^6 LB cells in the right flank, and, 7 days later, an s.c. secondary implant of 1×10^5 LB tumor cells in the left flank. […] The remaining 10 mice received 0.2 mL of phenylalanine (500 μg/mL) at the site of the secondary implant, daily, for 8 days, starting 1 hour after the secondary inoculum [CR+Phe (-□-)]. Controls were 10 mice receiving 1×10^5 LB tumor cells in the left flank only [control (-Δ-)]. A fourth group received the tumor inoculum in the left flank but also meta-tyrosine at the site of tumor implant (0.2 mL of 500 μg/mL, n=10) or by the intraperitoneal route (0.5 mL of 1,000 μg/mL, n=6), daily, for 8 days, starting 1 hour after tumor inoculum [control+m-Tyr: (-▴-)]. A fifth group received the tumor inoculum in the left flank and also meta-tyrosine (0.2 mL of 500 μg/mL, n=5) at the site of tumor growth, daily for 5 days, starting (see arrow) when LB was an established tumor measuring 60 to 70 mm^3 [est. LB+m-Tyr: (-X-)]. Abscissa, days after tumor implant in the left flank. Ordinate, volume of the tumors implanted in the left flank. CR and control+m-Tyr versus control: P<0.001 at day 9 and P<0.002 at days 5 and 7; CR and control+m-Tyr versus CR+Phe: P<0.001 at days 5, 7 and […]; est. LB+m-Tyr versus control and CR+Phe: P<0.002 at day 9. Control+tyrosine or saline, control; CR+tyrosine or saline, CR. FIG. 6B is a microscopic view showing many tumor cells expressing Ki-67 protein in both CR+phenylalanine (B1) and control (B2) groups and few tumor cells expressing Ki-67 in both CR (B3) and control+meta-tyrosine (B4) groups (H×400). FIG. 6C illustrates a representative experiment showing the frequency distribution histogram of viable LB cells from a control tumor (C1), from a secondary tumor inhibited by CR (C2), and from a tumor inhibited by periodic intraumoral injection of meta-tyrosine (C3). Samples of tumor cells were collected 9 days after the s.c. inoculation of 1×10^5 LB tumor cells.

MC-C tumor = test: In vivo growth of s.c. MC-C fibrosarcoma implants; parameters: species or system mice; conditions: for effect on growth of MC-C tumor implants: mouse, in vivo
Method: Twelve mice received a s.c. implant of 5×10^6 MC-C tumor cells in the right flank and 25 days later they received a secondary implant of 2×10^6 MC-C tumor cells in the left flank. […] The remaining 6 mice received 0.2 ml of phenylalanine (500 μg/ml) at the site of the secondary implant, daily, for 19 days, starting 1 hour later than the secondary implant. These secondary implants grew as in 6 controls only receiving the implant in the left flank (tumor volumes of secondary tumor+phenylalanine and of controls, 20 days after the implant in the left flank were =680±152 mm^3 and 524±88 mm^3, respectively). […] Significance: Secondary tumor vs. control: p<0.01; vs. secondary tumor+phenylalanine: p<0.02. Control+m-tyrosine vs. control and vs. secondary tumor+phenylalanine: p<0.02.

Row | SMILES | activation of ERK1 and ERK2 (p-ERK 1/2 expression) (ERK1 and ERK2) | activation of STAT3 (p-STAT3 expression) (STAT3) | effect on established s.c. LB tumors (LB tumor; at site of tumor growth, daily for 5 days, tumor 60 to 70 mm^3 at start) | expression of Ki-67 protein in tumor cells (LB tumor; control+m-tyrosine tumors or secondary implants treated with phenylalanine (FIG. 6B)) | growth of LB tumor implant (LB tumor) | tumor growth when treatment was interrupted (LB tumor; mouse, in vivo) | cell-cycle distribution of LB tumor cells (LB tumor; tumor inhibited by exogenous injection (FIG. 6C)) | tumor volume 20 days after the implant in the left flank (MC-C tumor; MC-C implant in left flank only, 0.2 ml of 500 μg/ml daily for 19 days at the site of the implant) [mm^3] | effect on growth of MC-C tumor implants (MC-C tumor)
1 | NC(Cc1cccc(O)c1)C(=O)O (centres unmarked) [meta-tyrosine, 3-hydroxyphenylalanine] | significantly reduced | significantly reduced | inhibitory | low expression of Ki-67 | did not grow | could reassume their growth | a decrease in G2-M phases and an increase of the S phase population | 212±57 | sharp inhibitory effects
2 | NC(Cc1ccccc1O)C(=O)O (centres unmarked) [ortho-tyrosine, 2-hydroxyphenylalanine] |  |  |  |  | inhibitory |  |  |  | inhibitory
